Experimental data from the kinase profiling compilation of Christmann-Franck et al. (2016).

How the values were obtained:
Experiment in all cases: radiometric filter-binding kinase assay
MAPK9 (human) = MAPK9 (human) (UniProt P45984)
PHKG1 (human) = PHKG1 (human) (UniProt Q16816)
[1] = tested on: AKT2 (human), P31751 [S474D]
MAP2K1 (human) = MAP2K1 (human) (UniProt Q02750)
RPS6KA1 KD1 KD2 (human) = RPS6KA1 KD1 KD2 (human) (UniProt Q15418)
IKBKB (human) = IKBKB (human) (UniProt O14920)
PIM2 (human) = PIM2 (human) (UniProt Q9P1W9)
MAPK3 (human) = MAPK3 (human) (UniProt P27361)
MKNK1 (human) = MKNK1 (human) (UniProt Q9BUB5)
PRKAA1 or PRKAA2 (rat) = settings: accession and sequence are those of the human protein
PRKACA (human) = PRKACA (human) (UniProt P17612)
MAPKAPK2 (human) = MAPKAPK2 (human) (UniProt P49137)
AURKB (human) = AURKB (human) (UniProt Q96GD4)
PKN2 (human) = PKN2 (human) (UniProt Q16513)
MAPK10 (human) = MAPK10 (human) (UniProt P53779)
CAMKK2 (human) = CAMKK2 (human) (UniProt Q96RR4)
MKNK2 (human) = MKNK2 (human) (UniProt Q9HBH9)
STK3 (human) = STK3 (human) (UniProt Q13188)
PRKCA (human) = PRKCA (human) (UniProt P17252)
CHEK2 (human) = CHEK2 (human) (UniProt O96017)
SRC (human) = SRC (human) (UniProt P12931)
CHEK1 (human) = CHEK1 (human) (UniProt O14757)
MAPK1 (human) = MAPK1 (human) (UniProt P28482)
NEK2 (human) = NEK2 (human) (UniProt P51955)
MAPK15 (human) = MAPK15 (human) (UniProt Q8TD08)

Sequence of PIM2 (human) (Q9P1W9 whole entry, looked up): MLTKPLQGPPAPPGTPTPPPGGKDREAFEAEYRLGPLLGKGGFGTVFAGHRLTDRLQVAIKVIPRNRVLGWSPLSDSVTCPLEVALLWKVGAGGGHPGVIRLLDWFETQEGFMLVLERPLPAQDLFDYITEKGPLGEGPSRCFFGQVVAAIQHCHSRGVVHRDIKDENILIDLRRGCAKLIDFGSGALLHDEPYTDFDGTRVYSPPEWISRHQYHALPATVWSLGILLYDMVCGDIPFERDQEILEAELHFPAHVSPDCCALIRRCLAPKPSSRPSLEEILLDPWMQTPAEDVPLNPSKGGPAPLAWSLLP
Sequence of RPS6KA1 KD1 KD2 (human) (Q15418 whole entry, looked up): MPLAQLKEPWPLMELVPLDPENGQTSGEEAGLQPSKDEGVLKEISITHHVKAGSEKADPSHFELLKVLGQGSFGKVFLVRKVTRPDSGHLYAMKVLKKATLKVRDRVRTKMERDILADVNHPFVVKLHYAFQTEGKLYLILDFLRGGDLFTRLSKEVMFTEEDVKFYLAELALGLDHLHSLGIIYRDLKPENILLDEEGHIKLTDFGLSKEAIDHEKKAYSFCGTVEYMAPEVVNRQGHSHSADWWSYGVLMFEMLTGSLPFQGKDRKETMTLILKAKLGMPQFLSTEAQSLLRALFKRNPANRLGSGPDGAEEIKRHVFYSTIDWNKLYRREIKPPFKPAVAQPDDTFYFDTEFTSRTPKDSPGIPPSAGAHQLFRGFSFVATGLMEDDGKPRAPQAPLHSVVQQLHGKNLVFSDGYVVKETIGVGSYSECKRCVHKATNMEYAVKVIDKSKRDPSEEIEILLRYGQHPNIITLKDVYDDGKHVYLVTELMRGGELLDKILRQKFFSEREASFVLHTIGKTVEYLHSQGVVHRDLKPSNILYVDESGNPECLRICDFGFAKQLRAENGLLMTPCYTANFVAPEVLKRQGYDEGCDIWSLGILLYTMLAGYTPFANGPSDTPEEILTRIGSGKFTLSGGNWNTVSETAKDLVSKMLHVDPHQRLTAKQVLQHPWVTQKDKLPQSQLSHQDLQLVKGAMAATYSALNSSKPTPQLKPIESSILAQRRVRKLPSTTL
Sequence of NEK2 (human) (P51955 whole entry, looked up): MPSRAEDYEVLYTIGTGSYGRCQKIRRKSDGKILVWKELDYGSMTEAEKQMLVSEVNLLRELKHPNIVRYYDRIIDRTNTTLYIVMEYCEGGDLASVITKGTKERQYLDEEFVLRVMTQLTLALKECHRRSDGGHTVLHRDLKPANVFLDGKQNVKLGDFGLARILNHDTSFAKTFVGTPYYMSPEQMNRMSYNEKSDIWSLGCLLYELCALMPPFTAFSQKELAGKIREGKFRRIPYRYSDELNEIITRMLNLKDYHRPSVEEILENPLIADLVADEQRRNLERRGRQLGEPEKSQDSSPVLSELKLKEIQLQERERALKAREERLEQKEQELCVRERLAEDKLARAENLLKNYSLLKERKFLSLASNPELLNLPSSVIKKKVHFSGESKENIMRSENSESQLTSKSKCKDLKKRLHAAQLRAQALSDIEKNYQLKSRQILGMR
Sequence of CAMKK2 (human) (Q96RR4 whole entry, looked up): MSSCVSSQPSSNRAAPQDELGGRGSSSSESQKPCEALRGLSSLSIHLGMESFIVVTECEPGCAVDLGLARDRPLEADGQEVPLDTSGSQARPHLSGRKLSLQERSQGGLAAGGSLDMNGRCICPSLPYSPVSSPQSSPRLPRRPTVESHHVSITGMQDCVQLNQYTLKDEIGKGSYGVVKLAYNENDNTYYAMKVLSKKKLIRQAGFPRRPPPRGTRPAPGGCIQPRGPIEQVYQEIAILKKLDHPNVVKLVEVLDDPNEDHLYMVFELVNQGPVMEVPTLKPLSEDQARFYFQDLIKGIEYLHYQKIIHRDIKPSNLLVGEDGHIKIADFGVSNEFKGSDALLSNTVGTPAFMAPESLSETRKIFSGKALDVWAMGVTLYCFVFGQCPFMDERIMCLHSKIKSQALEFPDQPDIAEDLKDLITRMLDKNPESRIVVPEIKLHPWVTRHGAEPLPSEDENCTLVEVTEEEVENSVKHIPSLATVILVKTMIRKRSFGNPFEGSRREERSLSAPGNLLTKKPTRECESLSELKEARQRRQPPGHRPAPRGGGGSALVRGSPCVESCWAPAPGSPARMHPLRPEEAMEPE
Sequence of IKBKB (human) (O14920 whole entry, looked up): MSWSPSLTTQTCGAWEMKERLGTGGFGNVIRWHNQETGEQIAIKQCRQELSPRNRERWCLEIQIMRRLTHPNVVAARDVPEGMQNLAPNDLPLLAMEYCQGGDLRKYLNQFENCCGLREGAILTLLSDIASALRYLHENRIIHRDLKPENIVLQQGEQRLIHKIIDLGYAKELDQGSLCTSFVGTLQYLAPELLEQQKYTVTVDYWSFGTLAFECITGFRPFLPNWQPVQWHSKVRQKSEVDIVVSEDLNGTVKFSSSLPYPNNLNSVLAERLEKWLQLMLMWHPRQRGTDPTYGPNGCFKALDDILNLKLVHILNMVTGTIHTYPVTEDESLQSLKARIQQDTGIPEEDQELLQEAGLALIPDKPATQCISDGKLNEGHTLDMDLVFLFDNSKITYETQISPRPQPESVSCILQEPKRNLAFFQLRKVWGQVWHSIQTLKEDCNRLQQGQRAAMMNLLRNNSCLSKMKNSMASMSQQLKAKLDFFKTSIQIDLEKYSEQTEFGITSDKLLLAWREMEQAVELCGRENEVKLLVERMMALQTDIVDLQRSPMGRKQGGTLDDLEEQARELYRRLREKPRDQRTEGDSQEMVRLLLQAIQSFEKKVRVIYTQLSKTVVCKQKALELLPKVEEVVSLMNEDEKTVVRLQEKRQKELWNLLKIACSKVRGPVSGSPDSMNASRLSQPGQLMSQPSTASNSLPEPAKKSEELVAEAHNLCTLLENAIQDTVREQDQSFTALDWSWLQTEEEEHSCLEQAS
Sequence of MAPKAPK2 (human) (P49137 whole entry, looked up): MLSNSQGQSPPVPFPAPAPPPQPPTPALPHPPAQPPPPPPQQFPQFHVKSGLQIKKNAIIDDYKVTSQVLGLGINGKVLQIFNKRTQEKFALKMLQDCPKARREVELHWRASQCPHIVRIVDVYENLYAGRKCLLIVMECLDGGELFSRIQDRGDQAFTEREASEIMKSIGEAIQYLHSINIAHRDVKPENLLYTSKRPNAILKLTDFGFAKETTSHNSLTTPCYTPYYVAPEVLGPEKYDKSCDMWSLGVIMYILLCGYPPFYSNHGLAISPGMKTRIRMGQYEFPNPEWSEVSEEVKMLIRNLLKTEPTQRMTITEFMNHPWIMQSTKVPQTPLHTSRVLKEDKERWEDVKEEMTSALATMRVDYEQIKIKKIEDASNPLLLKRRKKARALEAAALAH
Sequence of MAP2K1 (human) (Q02750 whole entry, looked up): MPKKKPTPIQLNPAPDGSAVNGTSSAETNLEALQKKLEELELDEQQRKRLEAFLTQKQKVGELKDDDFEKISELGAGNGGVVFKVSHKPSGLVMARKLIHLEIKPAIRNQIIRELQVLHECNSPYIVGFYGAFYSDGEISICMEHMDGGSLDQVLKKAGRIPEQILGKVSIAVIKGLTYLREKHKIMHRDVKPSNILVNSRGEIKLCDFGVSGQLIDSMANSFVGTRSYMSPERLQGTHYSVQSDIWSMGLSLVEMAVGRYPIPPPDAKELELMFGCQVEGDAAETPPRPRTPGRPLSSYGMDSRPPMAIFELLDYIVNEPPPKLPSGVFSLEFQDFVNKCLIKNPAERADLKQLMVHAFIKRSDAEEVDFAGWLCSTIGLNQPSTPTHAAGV
Sequence of STK3 (human) (Q13188 whole entry, looked up): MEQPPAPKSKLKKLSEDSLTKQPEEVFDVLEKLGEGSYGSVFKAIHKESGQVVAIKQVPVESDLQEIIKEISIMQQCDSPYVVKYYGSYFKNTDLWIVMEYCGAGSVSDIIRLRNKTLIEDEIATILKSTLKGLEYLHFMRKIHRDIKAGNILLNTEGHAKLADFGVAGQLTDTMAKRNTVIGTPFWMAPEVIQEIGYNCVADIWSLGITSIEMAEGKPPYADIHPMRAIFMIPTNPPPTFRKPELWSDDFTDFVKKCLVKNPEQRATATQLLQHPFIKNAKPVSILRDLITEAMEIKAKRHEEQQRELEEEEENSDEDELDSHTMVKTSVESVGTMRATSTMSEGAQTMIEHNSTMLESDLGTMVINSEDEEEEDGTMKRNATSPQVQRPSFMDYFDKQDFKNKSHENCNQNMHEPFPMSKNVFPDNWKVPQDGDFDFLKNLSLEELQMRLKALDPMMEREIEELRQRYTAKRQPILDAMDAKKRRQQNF

For `Cn1nc(Nc2ccc(F)cc2)c2c(N)ncnc21`, the residual activity (MAPK9 (human); compound 1.0 µM) was 122%, the residual activity (MAPK9 (human); compound 10.0 µM) was 124% and the residual activity (PHKG1 (human); compound 1.0 µM) was 113%. The residual activity (PHKG1 (human); compound 10.0 µM) was 119%, the residual activity ([1]; compound 1.0 µM) was 103% and the residual activity ([1]; compound 10.0 µM) was 103%. The residual activity (MAP2K1 (human); compound 1.0 µM) was 108%, the residual activity (MAP2K1 (human); compound 10.0 µM) was 104% and the residual activity (RPS6KA1 KD1 KD2 (human); compound 1.0 µM) was 121%. The residual activity (RPS6KA1 KD1 KD2 (human); compound 10.0 µM) was 102%, the residual activity (IKBKB (human); compound 1.0 µM) was 98% and the residual activity (IKBKB (human); compound 10.0 µM) was 96%. It also gave a residual activity (PIM2 (human); compound 1.0 µM) of 100%, a residual activity (PIM2 (human); compound 10.0 µM) of 109% and a residual activity (MAPK3 (human); compound 1.0 µM) of 124%. The residual activity (MAPK3 (human); compound 10.0 µM) was 111%, the residual activity (MKNK1 (human); compound 1.0 µM) was 95% and the residual activity (MKNK1 (human); compound 10.0 µM) was 92%. For the same compound, the residual activity (PRKAA1 or PRKAA2 (rat); compound 1.0 µM) was 105%, the residual activity (PRKAA1 or PRKAA2 (rat); compound 10.0 µM) was 107% and the residual activity (PRKACA (human); compound 1.0 µM) was 106%. For the same compound, the residual activity (PRKACA (human); compound 10.0 µM) was 107%, the residual activity (MAPKAPK2 (human); compound 1.0 µM) was 97% and the residual activity (MAPKAPK2 (human); compound 10.0 µM) was 95%. The residual activity (AURKB (human); compound 1.0 µM) was 98%, the residual activity (AURKB (human); compound 10.0 µM) was 82% and the residual activity (PKN2 (human); compound 1.0 µM) was 103%. It also gave a residual activity (PKN2 (human); compound 10.0 µM) of 109%, a residual activity (MAPK10 (human); compound 1.0 µM) of 104% and a residual activity (MAPK10 (human); compound 10.0 µM) of 104%. It also gave a residual activity (CAMKK2 (human); compound 1.0 µM) of 112%, a residual activity (CAMKK2 (human); compound 10.0 µM) of 120% and a residual activity (MKNK2 (human); compound 1.0 µM) of 104%. The residual activity (MKNK2 (human); compound 10.0 µM) was 103%, the residual activity (STK3 (human); compound 1.0 µM) was 102% and the residual activity (STK3 (human); compound 10.0 µM) was 104%. It also gave a residual activity (PRKCA (human); compound 1.0 µM) of 120%, a residual activity (PRKCA (human); compound 10.0 µM) of 121% and a residual activity (CHEK2 (human); compound 1.0 µM) of 103%. For the same compound, the residual activity (CHEK2 (human); compound 10.0 µM) was 96%, the residual activity (SRC (human); compound 1.0 µM) was 96% and the residual activity (SRC (human); compound 10.0 µM) was 63%. For the same compound, the residual activity (CHEK1 (human); compound 1.0 µM) was 118%, the residual activity (CHEK1 (human); compound 10.0 µM) was 112% and the residual activity (MAPK1 (human); compound 1.0 µM) was 107%. For the same compound, the residual activity (MAPK1 (human); compound 10.0 µM) was 110%, the residual activity (NEK2 (human); compound 1.0 µM) was 102% and the residual activity (NEK2 (human); compound 10.0 µM) was 100%. The residual activity (MAPK15 (human); compound 1.0 µM) was 76% and the residual activity (MAPK15 (human); compound 10.0 µM) was 70%.
With `Cc1cccc(Nc2nn(C)c3ncnc(N)c23)c1` the residual activity (MAPK9 (human); compound 1.0 µM) was 104%, the residual activity (MAPK9 (human); compound 10.0 µM) was 117% and the residual activity (PHKG1 (human); compound 1.0 µM) was 106%. For the same compound, the residual activity (PHKG1 (human); compound 10.0 µM) was 101%, the residual activity ([1]; compound 1.0 µM) was 95% and the residual activity ([1]; compound 10.0 µM) was 100%. For the same compound, the residual activity (MAP2K1 (human); compound 1.0 µM) was 187%, the residual activity (MAP2K1 (human); compound 10.0 µM) was 191% and the residual activity (RPS6KA1 KD1 KD2 (human); compound 1.0 µM) was 108%. The residual activity (RPS6KA1 KD1 KD2 (human); compound 10.0 µM) was 101%, the residual activity (IKBKB (human); compound 1.0 µM) was 101% and the residual activity (IKBKB (human); compound 10.0 µM) was 101%. It also gave a residual activity (PIM2 (human); compound 1.0 µM) of 115%, a residual activity (PIM2 (human); compound 10.0 µM) of 113% and a residual activity (MAPK3 (human); compound 1.0 µM) of 114%. It also gave a residual activity (MAPK3 (human); compound 10.0 µM) of 108%, a residual activity (MKNK1 (human); compound 1.0 µM) of 92% and a residual activity (MKNK1 (human); compound 10.0 µM) of 96%. The residual activity (PRKAA1 or PRKAA2 (rat); compound 1.0 µM) was 111%, the residual activity (PRKAA1 or PRKAA2 (rat); compound 10.0 µM) was 114% and the residual activity (PRKACA (human); compound 1.0 µM) was 106%. It also gave a residual activity (PRKACA (human); compound 10.0 µM) of 98%, a residual activity (MAPKAPK2 (human); compound 1.0 µM) of 101% and a residual activity (MAPKAPK2 (human); compound 10.0 µM) of 104%. It also gave a residual activity (AURKB (human); compound 1.0 µM) of 96%, a residual activity (AURKB (human); compound 10.0 µM) of 87% and a residual activity (PKN2 (human); compound 1.0 µM) of 119%. For the same compound, the residual activity (PKN2 (human); compound 10.0 µM) was 110%, the residual activity (MAPK10 (human); compound 1.0 µM) was 101% and the residual activity (MAPK10 (human); compound 10.0 µM) was 102%. For the same compound, the residual activity (CAMKK2 (human); compound 1.0 µM) was 125%, the residual activity (CAMKK2 (human); compound 10.0 µM) was 117% and the residual activity (MKNK2 (human); compound 1.0 µM) was 103%. It also gave a residual activity (MKNK2 (human); compound 10.0 µM) of 76%, a residual activity (STK3 (human); compound 1.0 µM) of 90% and a residual activity (STK3 (human); compound 10.0 µM) of 102%. The residual activity (PRKCA (human); compound 1.0 µM) was 102%, the residual activity (PRKCA (human); compound 10.0 µM) was 117% and the residual activity (CHEK2 (human); compound 1.0 µM) was 84%. It also gave a residual activity (CHEK2 (human); compound 10.0 µM) of 98%, a residual activity (SRC (human); compound 1.0 µM) of 97% and a residual activity (SRC (human); compound 10.0 µM) of 100%. It also gave a residual activity (CHEK1 (human); compound 1.0 µM) of 109%, a residual activity (CHEK1 (human); compound 10.0 µM) of 115% and a residual activity (MAPK1 (human); compound 1.0 µM) of 116%. It also gave a residual activity (MAPK1 (human); compound 10.0 µM) of 111%, a residual activity (NEK2 (human); compound 1.0 µM) of 107% and a residual activity (NEK2 (human); compound 10.0 µM) of 115%. The residual activity (MAPK15 (human); compound 1.0 µM) was 76% and the residual activity (MAPK15 (human); compound 10.0 µM) was 93%.
